The values below come from patent US9546164B2 (GENENTECH, INC., priority 2013, dated 2017).

Structures are written as SMILES. Structures can show the parent of a compound that is named as a salt.

Sequence of hNav1.7 (Q15858 other isoform, or with tags, fused parts or gaps): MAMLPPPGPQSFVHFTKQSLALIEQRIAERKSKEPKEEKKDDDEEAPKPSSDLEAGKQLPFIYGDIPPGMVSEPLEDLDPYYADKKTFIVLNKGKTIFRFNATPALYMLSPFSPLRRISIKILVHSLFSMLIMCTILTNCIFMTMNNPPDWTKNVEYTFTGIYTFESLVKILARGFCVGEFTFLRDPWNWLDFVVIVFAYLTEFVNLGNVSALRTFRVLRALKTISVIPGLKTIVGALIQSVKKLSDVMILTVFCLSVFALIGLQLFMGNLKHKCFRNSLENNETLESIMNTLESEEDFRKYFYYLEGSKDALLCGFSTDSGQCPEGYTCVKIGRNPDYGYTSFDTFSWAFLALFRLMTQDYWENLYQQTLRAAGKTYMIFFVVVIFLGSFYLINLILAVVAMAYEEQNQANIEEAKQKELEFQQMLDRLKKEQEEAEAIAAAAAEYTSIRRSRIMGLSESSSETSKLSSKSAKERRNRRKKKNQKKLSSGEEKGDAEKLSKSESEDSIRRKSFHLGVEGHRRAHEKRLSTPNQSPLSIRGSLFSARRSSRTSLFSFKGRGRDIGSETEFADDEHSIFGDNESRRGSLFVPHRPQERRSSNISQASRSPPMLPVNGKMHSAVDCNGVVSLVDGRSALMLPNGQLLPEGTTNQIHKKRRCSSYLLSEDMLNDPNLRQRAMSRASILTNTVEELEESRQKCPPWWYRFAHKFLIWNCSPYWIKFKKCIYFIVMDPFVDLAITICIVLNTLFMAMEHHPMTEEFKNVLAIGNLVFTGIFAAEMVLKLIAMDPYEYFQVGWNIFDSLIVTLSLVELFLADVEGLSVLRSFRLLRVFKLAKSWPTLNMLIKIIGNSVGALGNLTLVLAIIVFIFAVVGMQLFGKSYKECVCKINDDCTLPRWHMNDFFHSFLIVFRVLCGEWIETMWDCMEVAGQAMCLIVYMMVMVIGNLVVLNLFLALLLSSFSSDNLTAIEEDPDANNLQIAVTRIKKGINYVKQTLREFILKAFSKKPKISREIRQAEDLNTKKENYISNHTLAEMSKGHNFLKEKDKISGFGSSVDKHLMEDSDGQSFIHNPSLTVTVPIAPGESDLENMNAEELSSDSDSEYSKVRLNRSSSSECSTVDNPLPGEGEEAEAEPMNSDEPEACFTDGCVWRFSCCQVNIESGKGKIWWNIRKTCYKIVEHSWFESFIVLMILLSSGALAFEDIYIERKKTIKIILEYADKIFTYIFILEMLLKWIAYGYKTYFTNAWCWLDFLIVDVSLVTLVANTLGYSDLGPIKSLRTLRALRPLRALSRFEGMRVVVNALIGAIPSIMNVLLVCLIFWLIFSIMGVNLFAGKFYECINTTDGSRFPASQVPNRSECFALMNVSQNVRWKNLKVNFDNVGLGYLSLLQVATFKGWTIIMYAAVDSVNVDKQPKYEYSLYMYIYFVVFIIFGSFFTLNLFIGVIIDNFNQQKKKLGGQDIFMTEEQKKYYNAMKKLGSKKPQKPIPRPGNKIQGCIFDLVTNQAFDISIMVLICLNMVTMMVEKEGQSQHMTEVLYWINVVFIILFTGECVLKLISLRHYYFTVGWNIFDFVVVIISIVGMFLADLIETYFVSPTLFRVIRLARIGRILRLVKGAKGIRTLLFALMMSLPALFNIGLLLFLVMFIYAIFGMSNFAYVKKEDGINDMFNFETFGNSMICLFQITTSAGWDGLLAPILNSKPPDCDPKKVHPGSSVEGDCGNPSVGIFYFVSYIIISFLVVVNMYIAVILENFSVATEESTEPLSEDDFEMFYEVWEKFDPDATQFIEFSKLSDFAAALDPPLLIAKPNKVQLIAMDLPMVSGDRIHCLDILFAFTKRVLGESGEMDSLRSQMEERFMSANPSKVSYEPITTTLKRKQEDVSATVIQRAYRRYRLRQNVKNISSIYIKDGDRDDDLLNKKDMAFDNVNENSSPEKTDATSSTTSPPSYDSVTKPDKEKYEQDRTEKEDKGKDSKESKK
Sequence of hNav1.7 (Q07699 19-218 partner): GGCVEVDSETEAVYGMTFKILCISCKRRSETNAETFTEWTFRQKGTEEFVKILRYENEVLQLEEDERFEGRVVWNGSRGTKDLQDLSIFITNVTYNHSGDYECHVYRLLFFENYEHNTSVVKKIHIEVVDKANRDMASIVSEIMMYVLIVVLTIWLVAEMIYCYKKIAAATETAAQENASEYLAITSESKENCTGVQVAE

One assay addresses hNav1.7 (Homo sapiens (Human), UniProt Q15858). As to the kind of experiment: Tritiated sulfonamide competitive binding to membranes from cells expressing hNav1.7 and the β1 subunit.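 Also: Filter-bound radioactivity counted by liquid scintillation, nonspecific binding defined with excess unlabelled ligand, IC50 fitted to percent inhibition of specific binding.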
Conditions: not given
The compound `O=C(NS(=O)(=O)N1CCC1)c1cc(C2CC2)c(O[C@@H]2CCCN(Cc3ccc(F)cc3F)C2)cc1F` [Example 8, (R)—N-(azetidin-1-ylsulfonyl)-5-cyclopropyl-4-((1-(2,4-difluorobenzyl)-piperidin-3-yl)oxy)-2-fluorobenzamide] returned an IC50 of 0.0081 µM.
The same measure, in the same setting: for `C[C@H]1CN(Cc2cc(F)c(C(=O)NS(C)(=O)=O)cc2C2CC2)CCN1[C@@H](C)c1cc(Cl)cc(Cl)c1` [Example 567, 5-cyclopropyl-4-(((S)-4-((S)-1-(3,5-dichlorophenyl)ethyl)-3-methylpiperazin-1-yl)methyl)-2-fluoro-N-(methylsulfonyl)benzamide] the value was 0.0152 µM.
Take `CC(=O)N1CCC[C@@H](Oc2cc(F)c(C(=O)NS(=O)(=O)C3CC3)cc2C2CC2)C1` [Example 4, (R)-4-((1-acetylpiperidin-3-yl)oxy)-5-cyclopropyl-N-(cyclopropylsulfonyl)-2-fluorobenzamide]: the IC50 is 6.6 µM.
On the same count and under the same terms, in the case of `O=C(NS(=O)(=O)C1CC1)c1cc(C2CC2)c(CN2CCC(Oc3ccc(Cl)cc3Cl)CC2)cc1F` [Example 547, 5-cyclopropyl-N-(cyclopropylsulfonyl)-4-((4-(2,4-dichlorophenoxy)piperidin-1-yl)methyl)-2-fluorobenzamide, trifluoroacetic acid salt] it was 0.0082 µM; in that of `O=C(NS(=O)(=O)C1CC1)c1cc(C2CC2)c(CN2CCC(Oc3ncc(C(F)(F)F)cc3Cl)CC2)cc1F` [Example 524, 4-((4-((3-chloro-5-(trifluoromethyl)pyridin-2-yl)oxy)piperidin-1-yl)methyl)-5-cyclopropyl-N-(cyclopropylsulfonyl)-2-fluorobenzamide, trifluoroacetic acid salt], 0.0114 µM.
For `CC(C)(c1cccc(Cl)c1)N1CCC[C@@H](Oc2cc(F)c(C(=O)NS(=O)(=O)C3CC3)cc2C2CC2)C1` [Example 530, (R)-4-((1-(2-(3-chlorophenyl)propan-2-yl)piperidin-3-yl)oxy)-5-cyclopropyl-N-(cyclopropylsulfonyl)-2-fluorobenzamide, trifluoroacetic acid salt], the IC50 came out at 0.0023 µM.

Staying with this assay, now noted: read-out: Ligand Binding Assay; 100 pM [3H]compound, membranes with hNav1.7 and β1 subunit, 18 h, room temperature.
Consider `C[C@@H](c1ccccc1)N1CC(COc2cc(F)c(C(=O)NS(C)(=O)=O)cc2C2CC2)C1` [Example 84, (S)-5-Cyclopropyl-2-fluoro-N-(methylsulfonyl)-4-((1-(1-phenylethyl)azetidin-3-yl)methoxy)benzamide], for which the IC50 was found to be 1.24 µM.
Consider `COCCS(=O)(=O)NC(=O)c1cc(C2CC2)c(OCC2CN(C(c3ccccc3)c3ccccc3)C2)cc1F` [Example 61, 4-((1-benzhydrylazetidin-3-yl)methoxy)-5-cyclopropyl-2-fluoro-N-((2-methoxyethyl)sulfonyl)benzamide], for which the IC50 was 0.057 µM.
The same measure, in the same setting: in the case of `CS(=O)(=O)NC(=O)c1cc(C2CC2)c(OCC2CCN(Cc3cc(Cl)cc(OC(F)(F)F)c3)CC2)cc1F` [Example 136, 4-((1-(3-Chloro-5-(trifluoromethoxy)benzyl)piperidin-4-yl)methoxy)-5-cyclopropyl-2-fluoro-N-(methylsulfonyl)benzamide] it was 0.00188 µM; in that of `CC1(COc2cc(F)c(C(=O)NS(C)(=O)=O)cc2C2CC2)CCN(Cc2cc(Cl)cc(C(F)(F)F)c2)CC1` [Example 140, 4-((1-(3-chloro-5-(trifluoromethyl)benzyl)-4-methylpiperidin-4-yl)methoxy)-5-cyclopropyl-2-fluoro-N-(methylsulfonyl)benzamide], 0.0035 µM.
Take `CS(=O)(=O)NC(=O)c1cc(C2CC2)c(CN2CCO[C@H](Cc3ccc(F)cc3Cl)C2)cc1F` [Example 466, (R)-4-((2-(2-chloro-4-fluorobenzyl)morpholino)methyl)-5-cyclopropyl-2-fluoro-N-(methylsulfonyl)benzamide, trifluoroacetic acid salt]: the IC50 stood at 0.0073 µM.
On the same count and under the same terms, in the case of `CS(=O)(=O)NC(=O)c1cc(C2CC2)c(OCC2CCN([C@@H]3c4ccccc4C[C@@H]3O)CC2)cc1F` [Example 199, 5-Cyclopropyl-2-fluoro-4-((1-((1R,2S)-2-hydroxy-2,3-dihydro-1H-inden-1-yl)piperidin-4-yl)methoxy)-N-(methylsulfonyl)benzamide] it was 1.4 µM.
Still for that read-out and setting: for `O=C(NS(=O)(=O)C1CC1)c1cc(C2CC2)c(OCC2CCN(Cc3ccc(Br)cc3Cl)CC2)cc1F` [Example 414, 4-((1-(4-bromo-2-chlorobenzyl)piperidin-4-yl)methoxy)-5-cyclopropyl-N-(cyclopropylsulfonyl)-2-fluorobenzamide, trifluoroacetic acid salt] the value was 0.0038 µM.
On the same count and under the same terms, for `CC(C)(C)OC(=O)N1CC(COc2cc(F)c(C(=O)NS(C)(=O)=O)cc2C2CC2)C1` [Example 72, tert-butyl 3-((2-cyclopropyl-5-fluoro-4-((methylsulfonyl)carbamoyl)phenoxy)methyl)azetidine-1-carboxylate] the value was 0.75 µM; for `CS(=O)(=O)NC(=O)c1cc(C2CC2)c(OCC2CCN(S(C)(=O)=O)CC2)cc1F` [Example 395, 5-cyclopropyl-2-fluoro-N-(methylsulfonyl)-4-((1-(methylsulfonyl)piperidin-4-yl)methoxy)benzamide], greater than 10 µM.
As to `O=C(NS(=O)(=O)N1CCC1)c1cc(C2CC2)c(OCC2CCN(Cc3cc(C(F)(F)F)cc(Cl)c3F)CC2)cc1F` [Example 583, N-(azetidin-1-ylsulfonyl)-4-((1-(3-chloro-2-fluoro-5-(trifluoromethyl)benzyl)piperidin-4-yl)methoxy)-5-cyclopropyl-2-fluorobenzamide], the IC50 is 0.0034 µM.
Consider `CS(=O)(=O)NC(=O)c1cc(C2CC2)c(OCC2CCN(CC(F)(F)C(F)F)CC2)cc1F` [Example 192, 5-Cyclopropyl-2-fluoro-N-(methylsulfonyl)-4-((1-(2,2,3,3-tetrafluoropropyl)piperidin-4-yl)methoxy)benzamide], for which the IC50 is 0.034 µM.
On the same count and under the same terms, in the case of `CC(c1ccc(OC(F)(F)F)cc1)N1CCC(COc2cc(F)c(C(=O)NS(C)(=O)=O)cc2C2CC2)CC1` (stereo not drawn) [Example 156] it was 0.021 µM; in that of `O=C(NS(=O)(=O)N1CCC1)c1cc(C2CC2)c(OCC2CC3CCC(C2)N3Cc2ccccc2Cl)cc1F` (stereo not drawn) [Example 47, N-(azetidin-1-ylsulfonyl)-4-((8-(2-chlorobenzyl)-8-azabicyclo[3.2.1]octan-3-yl)methoxy)-5-cyclopropyl-2-fluorobenzamide], 0.0251 µM; in that of `CS(=O)(=O)NC(=O)c1cc(C2CC2)c(OCC2CCN(CC(F)(F)F)CC2)cc1F` [Example 116, 5-Cyclopropyl-2-fluoro-N-(methylsulfonyl)-4-((1-(2,2,2-trifluoroethyl)-piperidin-4-yl)methoxy)benzamide], 0.0775 µM.
The same measure, in the same setting: for `COC[C@@H](c1cccc(Cl)c1)N1CCC(COc2cc(F)c(C(=O)NS(C)(=O)=O)cc2C2CC2)CC1` [Example 262, (R)-4-((1-(1-(3-chlorophenyl)-2-methoxyethyl)piperidin-4-yl)methoxy)-5-cyclopropyl-2-fluoro-N-(methylsulfonyl)benzamide] the value was 0.018 µM; for `CS(=O)(=O)NC(=O)c1cc(C2CC2)c(OCC2CCN(Cc3cc(F)c(Cl)cc3Cl)CC2)cc1F` [Example 453, 5-cyclopropyl-4-((1-(2,4-dichloro-5-fluorobenzyl)piperidin-4-yl)methoxy)-2-fluoro-N-(methylsulfonyl)benzamide, trifluoroacetic acid salt], 0.003 µM.
As to `CS(=O)(=O)NC(=O)c1cc(C2CC2)c(O[C@@H]2CCCN(Cc3ccc(C(F)(F)F)c(Cl)c3)C2)cc1F` [Example 433, (R)-4-((1-(3-chloro-4-(trifluoromethyl)benzyl)piperidin-3-yl)oxy)-5-cyclopropyl-2-fluoro-N-(methylsulfonyl)benzamide, trifluoroacetic acid salt], the IC50 is 0.0062 µM.
Regarding `COC[C@H](c1ccccc1)N1CCC(COc2cc(F)c(C(=O)NS(C)(=O)=O)cc2C2CC2)CC1` [Example 223, (S)-5-cyclopropyl-2-fluoro-4-((1-(2-methoxy-1-phenylethyl)piperidin-4-yl)methoxy)-N-(methylsulfonyl)benzamide], the IC50 was found to be 0.25 µM.
The same measure, in the same setting: for `CS(=O)(=O)NC(=O)c1cc(C2CC2)c(OCC2CCN(C(c3ccc(Cl)cc3)c3ccc(Cl)cc3)CC2)cc1F` [Example 362, 4-((1-(bis(4-chlorophenyl)methyl)piperidin-4-yl)methoxy)-5-cyclopropyl-2-fluoro-N-(methylsulfonyl)benzamide, trifluoroacetic acid salt] the value was 0.0029 µM; for `CC(c1cc(Cl)cc(Cl)c1)N1CCC(COc2cc(F)c(C(=O)NS(C)(=O)=O)cc2C2CC2)CC1` (stereo not drawn) [Example 97, 5-Cyclopropyl-4-((1-(1-(3,5-dichlorophenyl)ethyl)piperidin-4-yl)methoxy)-2-fluoro-N-(methylsulfonyl)benzamide], 0.00269 µM; for `O=C(NS(=O)(=O)C1CC1)c1cc(C2CC2)c(OCC2(F)CCN(Cc3cc(C(F)(F)F)cc(Cl)c3F)CC2)cc1F` [Example 347, 4-((1-(3-chloro-2-fluoro-5-(trifluoromethyl)benzyl)-4-fluoropiperidin-4-yl)methoxy)-5-cyclopropyl-N-(cyclopropylsulfonyl)-2-fluorobenzamide, trifluoroacetic acid salt], 0.0063 µM.
As for `CC1(COc2cc(F)c(C(=O)NS(C)(=O)=O)cc2C2CC2)CN(Cc2cc(C(F)(F)F)cc(Cl)c2F)C1` [Example 593, 4-((1-(3-chloro-2-fluoro-5-(trifluoromethyl)benzyl)-3-methylazetidin-3-yl)methoxy)-5-cyclopropyl-2-fluoro-N-(methylsulfonyl)benzamide], the IC50 is 0.0099 µM.
Same read-out and setting: for `CS(=O)(=O)NC(=O)c1cc(C2CC2)c(OCC2CCN(Cc3cnc(OCC(F)(F)F)c(Cl)c3)CC2)cc1F` [Example 190, 4-((1-((5-Chloro-6-(2,2,2-trifluoroethoxy)pyridin-3-yl)methyl)piperidin-4-yl)methoxy)-5-cyclopropyl-2-fluoro-N-(methylsulfonyl)benzamide] the value was 0.056 µM; for `CS(=O)(=O)NC(=O)c1cc(C2CC2)c(OCC2CCN(Cc3ccccc3C#N)CC2)cc1F` [Example 149, 4-((1-(2-Cyanobenzyl)piperidin-4-yl)methoxy)-5-cyclopropyl-2-fluoro-N-(methylsulfonyl)benzamide], 0.0737 µM.
